Measured values taken from ChEMBL document CHEMBL1201862, “PubChem BioAssay data set” (2004).
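Compound exposure: 48 hours, 5 concentrations, 96-well plates. GI50 marks 50% less growth.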 The source made the active and inactive calls. No stated cut-off is given here; in the data, active = GI50 up to about 1.1 µM and inactive = higher.

What was measured:
Assay in all cases: NCI-60 cell line screen, 48 h
UACC-62 = tested on: UACC-62
SR = tested on: SR
SF-295 = tested on: SF-295
SN12C = tested on: SN12C
HCT-116 = tested on: HCT-116
DMS-114 = tested on: DMS-114
OVCAR-3 = tested on: OVCAR-3
OVCAR-5 = tested on: OVCAR-5
HCC 2998 = tested on: HCC 2998
CCRF-CEM = tested on: CCRF-CEM
SNB-75 = tested on: SNB-75
Malme-3M = tested on: Malme-3M
A498 = tested on: A498
DU-145 = tested on: DU-145
EKVX = tested on: EKVX
T47D = tested on: T47D
OVCAR-4 = tested on: OVCAR-4
MDA-N = tested on: MDA-N
PC-3 = tested on: PC-3
ACHN = tested on: ACHN

| SMILES | GI50 (UACC-62) | GI50 (SR) | GI50 (SF-295) | GI50 (SN12C) | GI50 (HCT-116) | GI50 (DMS-114) | GI50 (OVCAR-3) | GI50 (OVCAR-5) | GI50 (HCC 2998) | GI50 (CCRF-CEM) | GI50 (SNB-75) | GI50 (Malme-3M) | GI50 (A498) | GI50 (DU-145) | GI50 (EKVX) | GI50 (T47D) | GI50 (OVCAR-4) | GI50 (MDA-N) | GI50 (PC-3) | GI50 (ACHN) |
| --- | --- | --- | --- | --- | --- | --- | --- | --- | --- | --- | --- | --- | --- | --- | --- | --- | --- | --- | --- | --- |
| Nc1nncs1 | 1910 µM (inactive) | 2000 µM (inactive) | 2760 µM (inactive) | 3040 µM (inactive) | 1500 µM (inactive) | 1960 µM (inactive) | 2400 µM (inactive) | 1870 µM (inactive) | 2160 µM (inactive) | 1010 µM (inactive) | 1440 µM (inactive) | 3590 µM (inactive) | 867 µM (inactive) | 2070 µM (inactive) | 1320 µM (inactive) | > 3040 µM (inactive) | 853 µM (inactive) | 1950 µM (inactive) | 2610 µM (inactive) | 1520 µM (inactive) |
| COc1cc(/C=C/C(=O)Oc2ccccc2)ccc1C(=O)O/C=C/c1ccccc1 | > 100 µM (inactive) |  | > 100 µM (inactive) | > 100 µM (inactive) | > 100 µM (inactive) | > 100 µM (inactive) | > 31.6 µM (inactive) | > 100 µM (inactive) | > 100 µM (inactive) | 17.7 µM (inactive) | > 100 µM (inactive) | > 100 µM (inactive) | > 21.5 µM (inactive) | > 100 µM (inactive) | > 100 µM (inactive) | > 100 µM (inactive) | > 100 µM (inactive) | > 100 µM (inactive) | > 100 µM (inactive) | > 100 µM (inactive) |
| CCCCNCCCNCCCNC(=O)c1csc(-c2csc(CCNC(=O)C(NC(=O)C(C)C(O)C(C)NC(=O)C(NC(=O)c3nc(C(CC(N)=O)NCC(N)C(N)=O)nc(N)c3C)C(OC3OC(CO)C(O)C(O)C3OC3OC(CO)C(O)C(OC(N)=O)C3O)c3c[nH]cn3)C(C)O)n2)n1 (stereo not drawn) | 0.362 µM (active) | 6.44 µM (inactive) | 0.0681 µM (active) | 2.21 µM (inactive) | 0.0998 µM (active) | 0.611 µM (active) | 2.86 µM (inactive) | 2.3 µM (inactive) | 43.7 µM (inactive) | 15.6 µM (inactive) | 0.0589 µM (active) | 0.294 µM (active) | 3.65 µM (inactive) | 11.1 µM (inactive) | 14 µM (inactive) | 12.9 µM (inactive) | 5.75 µM (inactive) |  | 23.6 µM (inactive) | < 0.0187 µM (active) |
